Tested on: renal cancer patients
Experiment: Clinical outcome of renal cancer patients treated with targeted drugs (nibs)
Assay type: in vivo, human
Settings: for # of transcriptomes taken from responders: sustained stabilization of tumor progress; for # of transcriptomes taken from non-responders: tumor progression despite the applied treatment
Experimental: A set of samples taken from the tumors of renal cancer patients who were treated at Clinical Hospital of the Hertzen Cancer Institute in Moscow. These samples were examined using the Illumina HT-12 platform at Medical Center of Lethbridge University in Canada. As a reference normal renal tissue, the dataset GSE49972 (Karlsson et al., 2014) obtained on the same platform, was used. […] The overview of renal cancer transcriptomes selected for the V-dataset, is shown below in Table 3.
As an example, we list here the details of case history for one of the patient, who has been a responder to Sunitinib treatment.
Person; the clear cell cancer in left kidney; disease progression stage T3N0M1, distant metastases to lungs and skeleton. Surgery has not been performed due to the overall progression of the disease. Before the chemotherapy for distant metastases, the patient received the symptomatic radiation therapy of 30 Gy on the pelvic and femoral zone. Two months after the patient received the neo-adjuvant Sunitinib therapy in overall dose of 50 mg.
As long as two years after the treatment, the patient was still alive and continued to receive the adjuvant Sunitinib therapy.

Cc1ccc(Nc2nccc(N(C)c3ccc4c(C)n(C)nc4c3)n2)cc1S(N)(=O)=O [Pazopanib]
# of transcriptomes taken from responders: 4
# of transcriptomes taken from non-responders: 3

CNC(=O)c1cc(Oc2ccc(NC(=O)Nc3ccc(Cl)c(C(F)(F)F)c3)cc2)ccn1 [Sorafenib]
# of transcriptomes taken from responders: 13
# of transcriptomes taken from non-responders: 15

CCN(CC)CCNC(=O)c1c(C)[nH]c(/C=C2\C(=O)Nc3ccc(F)cc32)c1C [Sunitinib]
# of transcriptomes taken from responders: 5
# of transcriptomes taken from non-responders: 10
